Experimental findings from ChEMBL document CHEMBL4483862, “Open-source discovery of chemical leads for next-generation chemoprotective antimalarials” (2018) are described below.

In the assay the test system is Plasmodium berghei. Description: Luciferase/luciferin-expressing antifolate-resistant parasites were used to infect a culture of HepG2 cells that were pre-incubated with compounds. Infected hepatocytes emit light due to the luciferase reaction. Assay results are presented as the percent inhibition of light emission compared to control. […]. Type of assay: functional. The following applies: sporozoite; for IC90: read-out: LUCIFERASE INFECTION ASSAY - IC90.

Take `CC(=O)c1c(C)[nH]c(C(=O)Nc2ccc(C)c(S(=O)(=O)Nc3ccc(C)cc3C)c2)c1C`: the IC90 is more than 10 µM. The IC50 (HEPG2TOX_HILL_SLOPE 7.64, HEPG2TOX_R_SQUARED 0.623, PBLUC_HILL_SLOPE 8.53, PBLUC_R_SQUARED 0.404, read-out: LUCIFERASE INFECTION ASSAY - IC50) was 9.43 µM.

Consider `NC(Cc1ccccc1)c1csc(Nc2ccc(C(=O)c3ccccc3)cc2)n1` (stereo unspecified), for which the IC90 came to 1.15 µM. Also, the IC50 (HEPG2TOX_HILL_SLOPE 7.62, HEPG2TOX_R_SQUARED 0.882, PBLUC_HILL_SLOPE 15.6, PBLUC_R_SQUARED 0.562, read-out: LUCIFERASE INFECTION ASSAY - IC50) is 1 µM.

For `FC(F)(F)c1nc2ccccc2nc1N/N=C/c1ccc(Cl)cc1`, the IC90 came to 9.28 µM. Besides, under “HEPG2TOX_HILL_SLOPE 7.63, HEPG2TOX_R_SQUARED 0.926, PBLUC_HILL_SLOPE 14.9, PBLUC_R_SQUARED 0.207, read-out: LUCIFERASE INFECTION ASSAY - IC50”, the half-inhibitory concentration (IC50) stood at 8 µM.

With `CCC(C)(C)c1ccc(Oc2ccc(NC(=O)Nc3ccccc3OC)cc2)cc1`, the IC90 was found to be 5.8 µM. Moreover, the IC50 (HEPG2TOX_HILL_SLOPE 7.52, 1.98, HEPG2TOX_R_SQUARED 0.307, 0.635, PBLUC_HILL_SLOPE 2.78, 0.762, PBLUC_R_SQUARED 0.525, 0.659, read-out: LUCIFERASE INFECTION ASSAY - IC50) was 1.08 µM.

As for `COC(=O)c1cnc(Sc2ccc(C(F)(F)F)cn2)c([N+](=O)[O-])c1`, the IC90 is more than 9.18 µM. Besides, where the note is “HEPG2TOX_HILL_SLOPE 7.53, HEPG2TOX_R_SQUARED 0.667, PBLUC_HILL_SLOPE 5.12, PBLUC_R_SQUARED 0.221, read-out: LUCIFERASE INFECTION ASSAY - IC50”, the concentration for half-maximal inhibition (IC50) was more than 9.18 µM.

`CN1/C(=C\C(=O)CSc2nnc3c(n2)[nH]c2ccccc23)C(C)(C)c2ccccc21`: the IC90 is more than 10 µM. Under “HEPG2TOX_HILL_SLOPE 7.55, HEPG2TOX_R_SQUARED 0.316, read-out: LUCIFERASE INFECTION ASSAY - IC50”, the IC50 is more than 10 µM.

In the case of `COc1cc(-c2cnc3cnc(-c4ccccc4Cl)cn23)cc(OC)c1OC`, the 90% effect concentration (IC90) is more than 8.34 µM. Also, the IC50 (HEPG2TOX_HILL_SLOPE 7.56, HEPG2TOX_R_SQUARED 0.703, PBLUC_HILL_SLOPE 2.2, PBLUC_R_SQUARED 0.686, read-out: LUCIFERASE INFECTION ASSAY - IC50) amounted to 6.11 µM.

Take `Cc1cc(N2CCN(C(=O)c3cc(C4CC4)nn3-c3ccccc3)CC2)nc(C(C)C)n1`: the IC90 is more than 10 µM. Moreover, the IC50 (HEPG2TOX_HILL_SLOPE 7.58, HEPG2TOX_R_SQUARED 0.717, PBLUC_HILL_SLOPE 1.92, PBLUC_R_SQUARED 0.299, read-out: LUCIFERASE INFECTION ASSAY - IC50) is 4.83 µM.

In the case of `Cc1c(C(=O)N2CCN(c3cc(C#N)ccn3)CC2)[nH]c2c1C(=O)CCC2`, the concentration for an effect of 90% (IC90) is more than 10 µM. Moreover, under “HEPG2TOX_HILL_SLOPE 7.54, HEPG2TOX_R_SQUARED 0.56, read-out: LUCIFERASE INFECTION ASSAY - IC50”, the IC50 was more than 10 µM.

Turning to `O=C(c1cccs1)N1CCN(Cc2csc(C3CCCCC3)n2)CC1`, the IC90 is more than 10 µM. The IC50 (HEPG2TOX_HILL_SLOPE 7.59, HEPG2TOX_R_SQUARED 0.857, PBLUC_HILL_SLOPE 2.36, PBLUC_R_SQUARED 0.0477, read-out: LUCIFERASE INFECTION ASSAY - IC50) turned out to be 5.47 µM.

With `Cc1cc(C)c(S(=O)(=O)N(Cc2cccc3ccccc23)c2c(C)n(C)n(-c3ccccc3)c2=O)c(C)c1`, the IC90 is 9.71 µM. Further, the 50% inhibitory concentration (IC50) (HEPG2TOX_HILL_SLOPE 7.62, HEPG2TOX_R_SQUARED 0.586, PBLUC_HILL_SLOPE 20.2, PBLUC_R_SQUARED 0.47, read-out: LUCIFERASE INFECTION ASSAY - IC50) worked out at 8.71 µM.

As for `Cc1cc(C)c(C)c(S(=O)(=O)N2CCC(C(=O)Nc3nnc(-c4ccccc4)o3)CC2)c1C`, the IC90 is more than 10 µM. Also, the IC50 (HEPG2TOX_HILL_SLOPE 7.53, HEPG2TOX_R_SQUARED 0.782, PBLUC_HILL_SLOPE 3.42, PBLUC_R_SQUARED 0.39, read-out: LUCIFERASE INFECTION ASSAY - IC50) worked out at 6.89 µM.

Consider `CCOC(=O)c1c(C)oc(-c2ccc(Cl)cc2)c1S(=O)(=O)Nc1cccc(C)c1`, for which the IC90 was more than 7.61 µM. Further, for the setting “HEPG2TOX_HILL_SLOPE 7.66, HEPG2TOX_R_SQUARED 0.177, read-out: LUCIFERASE INFECTION ASSAY - IC50”, the IC50 was more than 7.61 µM.

For the compound `COCCNc1cc(C)nc2c(-c3ccc(C)cc3)c(C)nn12`, the concentration for an effect of 90% (IC90) is more than 10.6 µM. Moreover, the 50% inhibitory concentration (IC50) (HEPG2TOX_HILL_SLOPE 7.65, HEPG2TOX_R_SQUARED 0.721, PBLUC_HILL_SLOPE 1.1, PBLUC_R_SQUARED 0.545, read-out: LUCIFERASE INFECTION ASSAY - IC50) came out at 3.65 µM.

For the compound `COc1ccccc1-c1cc(-c2cccc(C(F)(F)F)c2)cnc1N`, the IC90 was more than 9.58 µM. In addition, the IC50 (HEPG2TOX_HILL_SLOPE 7.68, HEPG2TOX_R_SQUARED 0.737, read-out: LUCIFERASE INFECTION ASSAY - IC50) was more than 9.58 µM.

Consider `COc1ccc(N2C(=O)C(=O)N(Cc3c(C)cc(C(C)(C)C)cc3C)C2=O)cc1`, for which the IC90 stood at 7.85 µM. For the setting “HEPG2TOX_HILL_SLOPE 7.7, HEPG2TOX_R_SQUARED 0.735, PBLUC_HILL_SLOPE 4.71, PBLUC_R_SQUARED 0.498, read-out: LUCIFERASE INFECTION ASSAY - IC50”, the IC50 was determined as 4.92 µM.

Turning to `Cc1cccc(-n2cc(-c3ccccc3)c3c(N4CCN(C)CC4)ncnc32)c1`, the IC90 is more than 10 µM. Further, the 50% inhibitory concentration (IC50) (HEPG2TOX_HILL_SLOPE 7.66, HEPG2TOX_R_SQUARED 0.38, PBLUC_HILL_SLOPE 2.7, PBLUC_R_SQUARED 0.572, read-out: LUCIFERASE INFECTION ASSAY - IC50) is 6.64 µM.

As to `CC(Sc1nnc(-c2ccc(C(C)(C)C)cc2)o1)C(=O)Nc1ncc(Cl)cc1Cl` (stereo unspecified), the IC90 turned out to be 3.61 µM. Moreover, the IC50 (HEPG2TOX_HILL_SLOPE 7.53, HEPG2TOX_R_SQUARED 0.526, PBLUC_HILL_SLOPE 15.5, PBLUC_R_SQUARED 0.267, read-out: LUCIFERASE INFECTION ASSAY - IC50) came to 3.13 µM.

For `COc1cccc(Nc2nccc3nc(-c4ccc(F)c(F)c4)[nH]c23)c1`, the IC90 was more than 10 µM. The 50% inhibitory concentration (IC50) (HEPG2TOX_HILL_SLOPE 7.52, HEPG2TOX_R_SQUARED 0.793, PBLUC_HILL_SLOPE 2.32, PBLUC_R_SQUARED 0.606, read-out: LUCIFERASE INFECTION ASSAY - IC50) was 4.06 µM.

Turning to `Cc1cc(C(=O)CSc2nnc(C3CC3)[nH]2)c(C)n1-c1cccc(C(F)(F)F)c1`, the IC90 was more than 10 µM. Moreover, the concentration for half-maximal inhibition (IC50) (HEPG2TOX_HILL_SLOPE 7.7, HEPG2TOX_R_SQUARED 0.0445, PBLUC_HILL_SLOPE 1.16, PBLUC_R_SQUARED 0.631, read-out: LUCIFERASE INFECTION ASSAY - IC50) was determined as 3.51 µM.

Take `CCc1ccc2nc(NC(=O)c3nccnc3N)sc2c1`: the concentration for an effect of 90% (IC90) was more than 10 µM. In addition, under “HEPG2TOX_HILL_SLOPE 7.58, HEPG2TOX_R_SQUARED 0.761, PBLUC_HILL_SLOPE 15.5, PBLUC_R_SQUARED 0.446, read-out: LUCIFERASE INFECTION ASSAY - IC50”, the half-inhibitory concentration (IC50) was 9.33 µM.

As for `O=C(Nc1cc(Cl)ccc1O)c1ccccc1CSc1ccc(Cl)cc1`, the IC90 was 7.79 µM. The IC50 (HEPG2TOX_HILL_SLOPE 7.65, HEPG2TOX_R_SQUARED 0.733, PBLUC_HILL_SLOPE 11.9, PBLUC_R_SQUARED 0.0529, read-out: LUCIFERASE INFECTION ASSAY - IC50) was 6.47 µM.

Take `COc1ccc(N(Cc2c(C#N)c(C)nn2-c2ccccc2)S(=O)(=O)c2ccc(C)cc2)cc1`: the IC90 is more than 10 µM. The 50% inhibitory concentration (IC50) (HEPG2TOX_HILL_SLOPE 7.62, HEPG2TOX_R_SQUARED 0.552, PBLUC_HILL_SLOPE 10, PBLUC_R_SQUARED 0.432, read-out: LUCIFERASE INFECTION ASSAY - IC50) was 9.18 µM.

Turning to `COc1ccc(Nc2ccn3ncc(-c4ccc(N(C)C)cc4)c3n2)cn1`, the 90% effect concentration (IC90) was 5.31 µM. In addition, the IC50 (HEPG2TOX_HILL_SLOPE 7.66, HEPG2TOX_R_SQUARED 0.327, PBLUC_HILL_SLOPE 65.7, PBLUC_R_SQUARED 0.275, read-out: LUCIFERASE INFECTION ASSAY - IC50) was found to be 5.14 µM.

Take `S=C(N/N=C/c1ccccn1)Nc1ccc(Cl)c(Cl)c1`: the IC90 was more than 10.1 µM. In addition, the IC50 (HEPG2TOX_HILL_SLOPE 7.56, HEPG2TOX_R_SQUARED 0.274, PBLUC_HILL_SLOPE 6.84, PBLUC_R_SQUARED 0.4, read-out: LUCIFERASE INFECTION ASSAY - IC50) was 7.65 µM.

In the case of `Cc1ccc(Nc2ncccc2C(=O)Nc2nc3ccccc3[nH]2)c(C)c1`, the IC90 stood at 7.9 µM. Besides, the half-maximal inhibitory concentration (IC50) (HEPG2TOX_HILL_SLOPE 7.67, HEPG2TOX_R_SQUARED 0.775, PBLUC_HILL_SLOPE 5.03, PBLUC_R_SQUARED 0.402, read-out: LUCIFERASE INFECTION ASSAY - IC50) stood at 5.1 µM.

Turning to `Cc1cnc(NC(=O)c2ccc(N(C)C3CCCCC3)cc2)s1`, the IC90 was determined as 0.327 µM. Also, under “HEPG2TOX_HILL_SLOPE 7.67, HEPG2TOX_R_SQUARED 0.65, PBLUC_HILL_SLOPE 1.69, PBLUC_R_SQUARED 0.349, read-out: LUCIFERASE INFECTION ASSAY - IC50”, the half-maximal inhibitory concentration (IC50) is 0.0892 µM.

Consider `O=C(Nc1cc(S(=O)(=O)c2ccccc2)cs1)c1ccc(Cl)cc1`, for which the IC90 stood at 5.49 µM. Besides, where the note is “HEPG2TOX_HILL_SLOPE 7.57, HEPG2TOX_R_SQUARED 0.801, PBLUC_HILL_SLOPE 3.36, PBLUC_R_SQUARED 0.445, read-out: LUCIFERASE INFECTION ASSAY - IC50”, the IC50 turned out to be 2.85 µM.

In general, IC50 refers to the concentration at which inhibition is half-maximal. By IC90 is commonly meant the concentration at which the effect reaches the 90% level.
